Laboratory results taken from paper PMC12005787, “Synthetic Lethality of SHP2 and XIAP Suppresses Proliferation and Metastasis in KRAS‐mutant Nonsmall Cell Lung Cancer” (Advanced Science, 2025).
Values belong to the compound of their own block, whether it stands above or below them.

Key:
NCI‐H2122 tumor = experiment: NCI-H2122 subcutaneous transplantation tumor model; assay type: in vivo, BALB/c‐nu mouse; conditions: i.p., q2d
Method: NCI‐H2122 cells in the logarithmic growth phase were collected by mixing serum‐free RMPI‐1640 medium and Matrigel matrix gel, and injected subcutaneously into the right axilla of thymus‐less male BALB/c‐nu nude mice. Tumor volume was calculated according to V = ab^2/2 (where a and b are the long and short diameters of the tumor, respectively), and body weight was recorded every 3 days. When the tumor volume reached 100 mm^3, the mice were randomly divided into six groups (ten mice in each group): Control group (i.p, q2d), SHP099 (20 mg kg^−1, i.p, q2d) group, GDC‐0152 (20 mg kg^−1, i.p, q2d) group, SHP099 (20 mg kg^−1, i.p, q2d) + GDC‐ 0152 (20 mg kg^−1, i.p, q2d) co‐administration group, embelin (20 mg kg^−1, i.p, q2d) medium‐dose group and embelin (30 mg kg^−1, i.p, q2d) high‐dose group. When the tumor volume reached 1000 mm^3, all experimental mice were sacrificed, and tumor tissues and major organs, such as the heart, liver, spleen, lungs, and kidneys, were collected for further study.

SHP2 = target: T1, SHP2 (Homo sapiens, UniProt Q06124); experiment: Cellular thermal shift assay (CETSA); assay type: binding; conditions: NCI‐H2122 cell lysate
T1 construct: endogenous in cells; host or cells: NCI-H2122
T1 sequence (Q06124 1-593): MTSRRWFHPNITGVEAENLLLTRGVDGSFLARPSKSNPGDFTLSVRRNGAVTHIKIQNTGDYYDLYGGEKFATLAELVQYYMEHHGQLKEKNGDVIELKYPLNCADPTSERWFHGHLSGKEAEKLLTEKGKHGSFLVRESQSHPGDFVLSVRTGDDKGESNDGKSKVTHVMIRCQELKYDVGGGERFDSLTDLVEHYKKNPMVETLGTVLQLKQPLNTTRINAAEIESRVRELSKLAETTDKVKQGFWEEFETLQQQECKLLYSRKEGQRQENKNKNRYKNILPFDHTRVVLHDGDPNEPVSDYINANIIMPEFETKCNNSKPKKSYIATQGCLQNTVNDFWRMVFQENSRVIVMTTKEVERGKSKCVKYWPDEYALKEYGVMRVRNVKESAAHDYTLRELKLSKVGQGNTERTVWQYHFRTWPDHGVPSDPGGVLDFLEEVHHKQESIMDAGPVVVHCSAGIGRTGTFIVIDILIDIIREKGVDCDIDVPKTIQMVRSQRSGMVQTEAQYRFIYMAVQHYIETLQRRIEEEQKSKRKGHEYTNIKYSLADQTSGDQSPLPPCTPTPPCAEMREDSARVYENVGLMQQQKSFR
Method: (§1) NCI‐H2122 cells were harvested and resuspended with pre‐cooled PBS containing 1% cocktail, which was then frozen in liquid nitrogen for 5 min and thawed in a water bath at 37 °C for 5 min for three repetitions. The supernatant was collected via centrifugation at 4 °C (15 000 × g, 20 min), divided into two equal portions; one was added with test drugs or various concentrations of embelin, and the other was added with DMSO as control and subsequently incubated at 25 °C for 30 min. All samples were heated at temperatures ranging from 52–70 °C for 3 min, and subsequently in an ice bath for 3 min and collected by centrifugation at 4 °C (15 000 × g, 20 min), and added with protein sampling buffer at 100 °C for 5 min, followed by analysis of protein stability using western blotting.

A549 and NCI‐H2122 cells = experiment: Cell proliferation in monolayer culture (CCK-8); assay type: cell-based, human
Method: (§2) For the adherent cell viability assay, cells in the logarithmic growth phase were seeded in 96-well culture plates at a density of 5×103 well-1 and incubated overnight. Diluted compounds or DMSO were added, or specific treatments were incubated at 37 °C and 5% CO2 for 24 h or 48 h. Cell viability was determined using CCK-8 or CellLightTM Cell Viability Assay Kit, according to the manufacturer's protocol. The luminescence signals of the treated samples were normalized to those of the DMSO group. […]
Figure S7. Targeting SHP2 and XIAP produces a synthetic lethal effect. (A) Effects of NSC-87877 on cell viability of A549 and NCI-H2122 cells after 24 and 48 h were determined using the CCK-8. Bars, ± SEM. The curves were plotted using a variable slope (four-parameter) non-linear fit. (B, E, F, and I) Effects of Na3VO4 (B), birinapant (E), BV-6 (F), and LCL161 (I) on cell viability of human NCI-H2122 cells at 48 h were determined using the CCK-8. *p < 0.05, **p < 0.01 and ***p < 0.001 compared to control group (unpaired two-tailed Student’s t-test).(C, G) Effects of SHP099 (C) and GDC-0152 (G) on cell viability after 24 and 48 h were determined using the CCK-8. Bars, ± SEM. The curves were plotted using a variable slope (four-parameter) non-linear fit.(D, H) Effects of SHP099 (D) and GDC-0152 (H) on cell viability were determined after 48 h using intracellular ATP chemiluminescence. **p < 0.01 and ***p < 0.001 compared to control group (unpaired two-tailed Student’s t-test).(J) Effects of SHP099 and GDC-0152 separately and in combination, and the effect of embelin for 24 h on the cell viability were assessed using intracellular ATP […]
tailed Student’s t-test).(K) Effects of SHP099 and GDC-0152 separately and in combination with […] on the cell viability of human KRAS-WT and -mutant cells were assessed using a colony formation assay. (L, M) A549 and NCI-H2122 cells were instantaneously transfected with siPTPN11 and siXIAP separately and together for 24 h under

[1] = tested on: NCI-H2122, A549, and NCI-H1944 cells; experiment: Cell senescence β-galactosidase staining; assay type: cell-based, human; conditions: NCI‐H2122 cells; candidate drugs 10 μM
Method: Cell senescence β-galactosidase staining
NCI-H2122, A549, and NCI-H1944 cells in the logarithmic growth phase were seeded into 48-well plates and cultured overnight. The supernatant was aspirated and fresh serum-free (0%), low-serum (3%), or regular serum (10%) medium with different drugs was added for 48 h. When the supernatant was discarded, β-galactosidase staining fixation fluid were added for 15 min and β-galactosidase staining solution were imported overnight at 37 ℃.
Finally, the staining results were recorded using an inverted microscope.

[2] = tested on: KRAS‐mutant NSCLC cells in 3D culture; experiment: Cell proliferation in 3D cell culture (ATP chemiluminescence); assay type: cell-based
Method: (§3) supplies are listed in Supplementary Table S5. […]
For the adherent cell viability assay, cells in the logarithmic growth phase were seeded in 96-well culture plates at a density of 5×103 well-1 and incubated overnight. Diluted compounds or DMSO were added, or specific treatments were incubated at 37 °C and 5% CO2 for 24 h or 48 h. Cell viability was determined using CCK-8 or CellLightTM Cell Viability Assay Kit, according to the manufacturer's protocol. The luminescence signals of the treated samples were normalized to those of the DMSO group.
For spherical cell viability assays, cells in the logarithmic growth phase were inoculated ata density of 4×10^3 well-1 into 96-well spherical cell microplates and incubated at 37 °C, 5% CO2 for 24 h or 48 h. Cell viability was measured using the CellTiter-Glo® Luminescent Cell Viability 3D Cell Viability Assay Kit, according to the manufacturer’s protocol. The remaining steps were the same as those described above. […]
Figure S7. Targeting SHP2 and XIAP produces a synthetic lethal effect. (A) Effects of NSC-87877 on cell viability of A549 and NCI-H2122 cells after 24 and 48 h were determined using the CCK-8. Bars, ± SEM. […]
tailed Student’s t-test).(K) Effects of SHP099 and GDC-0152 separately and in combination with […] on the cell viability of human KRAS-WT and -mutant cells were assessed using a colony formation assay. […]

NCI-H1975 cells = experiment: Cell viability assay (CCK-8); assay type: cell-based; conditions: Homo sapiens, NCI-H1975, 24 h, NCI-H1975, RAS-wild type, EGFR L858R/T790M
Method: as §3
(§4) KRAS-mutant and wild-type cells are listed in Supplementary Table S7.
as §2

A549 cells = experiment: Cell viability assay (CCK-8); assay type: cell-based; conditions: Homo sapiens; A549, KRAS G12S, 24 h; read-out: IC50 at 24 h
Method: as §3, §4, §2

XIAP = target: T2, XIAP (Homo sapiens, UniProt P98170); experiment: Cellular thermal shift assay (CETSA); assay type: binding; conditions: 56 and 62 ℃
T2 construct: endogenous in cells; host or cells: NCI-H2122
T2 sequence (P98170 whole entry): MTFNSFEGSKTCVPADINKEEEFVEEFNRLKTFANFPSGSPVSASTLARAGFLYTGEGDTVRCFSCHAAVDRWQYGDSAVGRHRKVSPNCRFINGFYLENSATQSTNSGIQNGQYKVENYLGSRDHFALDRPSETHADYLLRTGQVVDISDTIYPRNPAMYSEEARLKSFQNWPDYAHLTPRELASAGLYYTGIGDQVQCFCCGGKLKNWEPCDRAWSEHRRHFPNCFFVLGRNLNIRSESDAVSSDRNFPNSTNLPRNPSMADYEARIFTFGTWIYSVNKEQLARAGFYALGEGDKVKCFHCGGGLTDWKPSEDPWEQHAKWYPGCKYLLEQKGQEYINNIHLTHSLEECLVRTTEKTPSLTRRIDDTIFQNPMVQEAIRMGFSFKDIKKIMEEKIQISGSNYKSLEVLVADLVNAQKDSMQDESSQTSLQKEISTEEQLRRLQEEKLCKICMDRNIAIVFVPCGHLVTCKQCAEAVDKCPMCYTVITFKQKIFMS
Method: as §1

effect on weights of hearts, livers, lungs, and kidneys and structure of hearts and kidneys (NCI‐H2122 tumor): no significant effect
effect on SHP2 protein stability (CETSA) (SHP2): did not affect SHP2 protein stability
SMILES: CN[C@@H](C)C(=O)N[C@H](C(=O)N1CCC[C@H]1C(=O)Nc1snnc1-c1ccccc1)C1CCCCC1 [GDC‐0152]
effect on body weight of the mice (NCI‐H2122 tumor): little or no effect on the body weight
effect on cell proliferation in monolayer cell culture mode (A549 and NCI‐H2122 cells): almost no effect
induction of cell senescence [1]: induced cellular senescence
effect on cell proliferation in 3D cell culture [2]: partially inhibited cell proliferation

IC50 (NCI-H1975 cells): > 100 µM
IC50 (A549 cells): > 100 µM
SMILES: C#Cc1cccc(Nc2ncnc3cc(OCCOC)c(OCCOC)cc23)c1 [erlotinib]

SMILES: [Na+].[Na+].[Na+].[O]=[V]([O-])([O-])[O-] [Na3VO4]
effect on XIAP protein stability (CETSA) (XIAP): did not affect XIAP protein stability
effect on cell proliferation in monolayer cell culture mode (A549 and NCI‐H2122 cells): almost no effect

SMILES: O=S(=O)(O)c1ccc2cc(N=Nc3cc(S(=O)(=O)O)c4cccnc4c3O)ccc2c1 [NSC‐87877]
effect on XIAP protein stability (CETSA) (XIAP): did not affect XIAP protein stability
effect on cell proliferation in monolayer cell culture mode (A549 and NCI‐H2122 cells): almost no effect
